Molecular target: ERα receptor (Homo sapiens (Human), UniProt P03372)
Experiment: PRα induction assay in MCF7 cells (ERα agonism)
Format: cell-based
Description: The purpose of the following PRα induction assay is to determine whether a test compound has agonistic activity against ERα receptor (an agonist would be expected to activate the receptor).
Culture MCF7 (purchased from ATCC HTB-22) in DMEM media supplemented with 10% FBS, 0.01 mg/mL human insulin 1 and 1% penicillin/streptomycin antibiotics and plate the cells (prior to becoming 70% confluent) in 384-well flat-bottom plates at a density of 4,000 cells per well in 20 μL volume in DMEM phenol red free media containing 10% FBS (charcoal stripped). Incubate the cells overnight in a cell culture incubator (5% CO2, 95% relative humidity at 37° C.) and allow the cells to attach to the plate. The following day, dose the cells with test compound. Use an Echo 555 acoustic dispenser to prepare compound serial dilutions (1:3) in a range from 6 μM to 0.0003 μM. Dose the cells with the addition of the test compound (5 μL) from the serial dilution plate to the cell plate producing a final DMSO concentration of 0.2% with a final concentration of the test compound dose range between 2 and 0.0001 μM. For the maximum point use media containing 0.2% of DMSO and for the minimum point, use fulvestrant diluted at […] final concentrations in the growth media containing 0.2% DMSO. After dosing with the test compound, incubate the cell plates at 37° C. and 5% CO2 for 24 hours. Fix the cells by adding 14% para-formaldehyde (10 μL) for 30 minutes at room temperature. Wash cells once with PBS (20 μL) and incubate with PBS (20 μL) containing 0.5% (v/v) TWEEN® 20 for 1 hour. Wash cells twice with PBS (20 μL) containing 0.05% TWEEN® 20 and block with 3% BSA in PBS containing 0.05% TWEEN® 20 and 0.1% TRITON™ X-100 (20 μL/well) for 1 hour at room temperature. […]
The following day, wash cells with PBS 0.05% TWEEN® 20 (2×20 μL) and incubate with secondary antibody (20 μL/well) (1:1000 dilution, Goat anti-rabbit IgM ALEXA FLUOR™ 488) in PBS 1% BSA for 105 minutes at room temperature. […] Scan plates with ACUMEN EXPLORER™ [Laser-scanning fluorescence microplate cytometer manufactured by TTP LABTECH LTD] to measure PRα. […]

Sequence of ERα receptor (P03372 whole entry): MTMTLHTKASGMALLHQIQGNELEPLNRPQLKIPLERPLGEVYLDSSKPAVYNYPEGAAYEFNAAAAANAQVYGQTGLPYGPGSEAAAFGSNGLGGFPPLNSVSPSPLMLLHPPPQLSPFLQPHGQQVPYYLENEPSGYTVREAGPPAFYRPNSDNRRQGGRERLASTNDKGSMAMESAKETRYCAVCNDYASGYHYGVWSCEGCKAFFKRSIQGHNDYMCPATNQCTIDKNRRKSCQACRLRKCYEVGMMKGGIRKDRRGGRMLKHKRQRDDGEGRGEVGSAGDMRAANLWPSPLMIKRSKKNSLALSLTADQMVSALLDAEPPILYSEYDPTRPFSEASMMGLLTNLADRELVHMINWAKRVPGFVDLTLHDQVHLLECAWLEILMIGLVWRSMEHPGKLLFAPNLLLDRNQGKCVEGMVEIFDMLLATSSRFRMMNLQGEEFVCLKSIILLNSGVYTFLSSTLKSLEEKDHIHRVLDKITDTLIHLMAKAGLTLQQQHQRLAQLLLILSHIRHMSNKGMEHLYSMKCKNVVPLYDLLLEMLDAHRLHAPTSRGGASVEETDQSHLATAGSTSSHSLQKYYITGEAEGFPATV

| Compound | agonistic activity (PRα induction) |
| --- | --- |
| Oc1ccc2c3c(cnc2c1)-c1ccc(C(F)(F)F)cc1OC3c1ccc(OCCN2CC(CF)C2)cc1 (racemic) [Example 1, Racemic 5-(4-{2-[3-(Fluoromethyl)azetidin-1-yl]ethoxy}phenyl)-8-(trifluoromethyl)-5H-[1]benzopyrano[4,3-c]quinolin-2-ol] | no significant agonistic activity |
| Oc1ccc2c3c(cnc2c1)-c1ccc(C(F)(F)F)cc1OC3c1ccc(OCCN2CC(CF)C2)cc1 (single isomer, unassigned; isomer 1) [Example 1A, 5-(4-{2-[3-(Fluoromethyl)azetidin-1-yl]ethoxy}phenyl)-8-(trifluoromethyl)-5H-[1]benzopyrano[4,3-c]quinolin-2-ol, Isomer 1] | no significant agonistic activity |
| Oc1ccc2c3c(cnc2c1)-c1ccc(C(F)(F)F)cc1OC3c1ccc(OCCN2CC(CF)C2)cc1 (single isomer, unassigned; isomer 2) [Example 1B, 5-(4-{2-[3-(Fluoromethyl)azetidin-1-yl]ethoxy}phenyl)-8-(trifluoromethyl)-5H-[1]benzopyrano[4,3-c]quinolin-2-ol, Isomer 2] | no significant agonistic activity |

From patent publication US11634426B2, “Selective estrogen receptor degraders” (Eli Lilly and Company, priority 2018, dated 2023)
